Experimental data from patent US4912036A, “Rapid differentiation of bacteria using cyclic polypeptide antibiotics” (Eastman Kodak Company, priority 1986, dated 1990).

What was measured:
[1] = system: S. aureus; assay: RIND VII reduction solution assay, ΔOD 635 nm; format: cell-based, Staphylococcus aureus; details: S. aureus 7 × 10^7 /ml, antibiotic 10^-4 molar
Description: (§1) Bacterial suspensions were prepared by growing the cells in BHT broth to stationary phase overnight at 37° C. P. auruginosa was grown with agitation. About 40 ml of each overnight culture was centrifuged, decanted and washed once with 0.05 molar potassium phosphate buffer or 0.05 molar N-2-hydroxy-ethylpiperazine-N'-2-ethanesulfonic acid (HEPES) buffer, pH 7.8, and resuspended in buffer.
(§2) TERGITOL 7 anionic surfactant was used to differentiate viable bacteria according to the prior art method. Various concentrations of TERGITOL 7 surfactant were mixed with a 10% glucose solution (50 μl), 3-(4,5-dimethyl-2-thiazolyl)-2,5-diphenyl-2N-tetrazolium bromide (MTT) (25 μl at 5 mg/ml methanol) or a RIND VII dispersion (1.5 ml) and phenazine methosulfate ETA (25 μl at 3 mg/ml methanol). The volume of each test solution was brought to 3 ml with potassium phosphate buffer. A cell suspension (100 μl at about 10^8 cells/ml) was then added. The solutions were incubated at 37° C. for 15 and 30 minutes in the presence of either E. coli, a gram(-) bacterium, or S. aureus, a gram(+) bacterium. The amount of dye formed was then determined visually, and graded as follows: "O" indicates no dye formation, +/- indicates faint dye formation, 1+ indicates light dye formation, 2+ indicates moderate dye formation, 3+ indicates strong dye formation, and 4+ indicates very strong dye formation. […]

[2] = system: E. coli; assay: MTT reduction solution assay, ΔOD 540 nm; format: cell-based, Escherichia coli; details: E. coli (-) 5×10^7, gramicidin S 0.00625 mg/ml, 37° C.
Description: (§3) These examples illustrate the differentiation of bacteria using a tetrazolium salt and phenolic dye as the reducible compounds and two cyclic polypeptide antibiotics according to the present invention. The tetrazolium salt was 3-(4,5-dimethyl-2-thiazolyl) -2,5-diphenyl-2H-tetrazolium bromide (MTT) which forms a colored formazan dye when reduced. The phenolic dye was 2,6-dichloroindophenol (DCIP) which forms a colorless species when reduced.
(§4) Solutions of the reducible compounds were prepared with the following: HEPES buffer (3 ml, 0.05 molar, pH 7.5), TRITON X-100 nonionic surfactant (1% concentration), glucose (50 μl of 10% in water), tryptose (50 μl of a 10% solution in water), MTT (25 μl of 5 mg/ml methanol) or DCIP (25 μl of 3 mg/ml methanol) and phenazine methosultate ETA (25 μl of 3 mg/ml methanol).
(§5) Test solutions were prepared from the following: reducible compound solution from above (200 μl), 50 μl of either gramicidin S solution (6 mg/ml methanol and 9 ml of buffer) or tyrocidin solution (100 mg/ml methanol and 8 ml of buffer) and 50 μl of cell suspension. […] The change in optical density (ΔOD) was determined after 30 minutes at 37° C. at 540 nm for the MTT assay and at 620 nm for the DCIP assay using a commercially available spectrophotometer.

[3] = system: E. coli; assay: RIND VII reduction solution assay, ΔOD 635 nm; format: cell-based, Escherichia coli; details: E. coli 7 × 10^7 /ml, antibiotic 10^-4 molar
Description: as §1, §2

[4] = system: S. aureus; assay: DCIP reduction solution assay, ΔOD 620 nm; format: cell-based, Staphylococcus aureus; details: S. aureus (+) 5×10^7, gramicidin S 0.00625 mg/ml, 37° C.
Description: as §3, §4, §5

With gramicidin S the “Corrected ΔOD (15 Minutes)” value [1] was 0.107, the “ΔOD, 540 nm after 30 Minutes” value [2] was 1.123 and the “Corrected ΔOD (15 Minutes)” value [3] was over 2.0. The “ΔOD, 620 nm after 30 Minutes” value [4] was 0.096.
